In US8889876B2, “Histone deacetylase inhibitors and uses thereof” (Jiangsu Hengyi Pharmaceutical Co., Ltd., priority 2008, dated 2014):

Experiments:
[1] = tested on: histone deacetylase; experiment: in vitro inhibition of histone deacetylase by HDAC inhibitor screening kit (Biovision K340-100); assay type: biochemical
Method: An assay for determining the in vitro inhibition activity of the compound on histone deacetylase is conducted according to the specification of HDAC inhibitor screeing kid (Biovision Company/Catalog #K340-100). […]

[2] = tested on: Hut78 T-cell Leukemia cell; experiment: CCK-8 proliferation inhibition, Hut78; assay type: cell-based; settings: for inhibition at 10 µM / inhibition at 100 µM: Homo sapiens, read-out: Hut-78 (inhibition %); for inhibition at 10 µM: HuT78, 10 μM; for inhibition at 100 µM: HuT78, 100 μM
Summary of the method: (§1)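 Compounds tested at two concentrations, 10 μM and 100 μM, with inhibition rates from CCK-8 viability read-out.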

[3] = tested on: PANC-1 human pancreatic cancer cells; experiment: CCK-8 proliferation inhibition, PANC-1; assay type: cell-based; settings: for inhibition at 10 µM / inhibition at 100 µM: Homo sapiens; for inhibition at 10 µM: PANC-1, 10 μM; for inhibition at 100 µM: PANC-1, 100 μM
Summary of the method: as §1

[4] = tested on: Jurkat E6-1 human T-cell lymphoma; experiment: CCK-8 proliferation inhibition, Jurkat E6-1; assay type: cell-based; settings: for inhibition at 10 µM / inhibition at 100 µM: Homo sapiens; for inhibition at 10 µM: Jurkat E6.1, 10 μM; for inhibition at 100 µM: Jurkat E6.1, 100 μM
Summary of the method: as §1

[5] = tested on: K562 human chronic myeloid leukemia cells; experiment: CCK-8 proliferation inhibition, K562; assay type: cell-based; settings: for inhibition at 10 µM / inhibition at 100 µM: Homo sapiens; for inhibition at 10 µM: K562, 10 μM; for inhibition at 100 µM: K562, 100 μM
Summary of the method: as §1

[6] = tested on: A549 human lung cancer cells; experiment: CCK-8 proliferation inhibition, A549; assay type: cell-based; settings: CCK-8 method; for inhibition at 10 µM / inhibition at 100 µM: Homo sapiens, A549
Summary of the method: as §1

[7] = tested on: MDA-MB-435s human breast cancer cells; experiment: CCK-8 proliferation inhibition, MDA-MB-435s; assay type: cell-based; settings: CCK-8 method; for inhibition at 10 µM / inhibition at 100 µM: Homo sapiens, MDA-MB-435S
Summary of the method: as §1

[8] = tested on: Hep3B2.1-7 human liver cancer cells; experiment: CCK-8 proliferation inhibition, Hep3B2.1-7; assay type: cell-based; settings: CCK-8 method; for inhibition at 10 µM / inhibition at 100 µM: Homo sapiens, Hep3B
Summary of the method: as §1

[9] = tested on: PC-3 human prostate cancer; experiment: CCK-8 proliferation inhibition, PC-3; assay type: cell-based; settings: CCK-8 method; for inhibition at 10 µM / inhibition at 100 µM: Homo sapiens
Summary of the method: as §1

[10] = tested on: Colo320 human rectal cancer cells; experiment: CCK-8 proliferation inhibition, Colo320; assay type: cell-based; settings: CCK-8 method; for inhibition at 10 µM / inhibition at 100 µM: Homo sapiens, COLO 320
Summary of the method: as §1

Compound | Inhibition rate(%) ([1]; 3.91 μM) | Inhibition rate(%) ([1]; 62.5 μM) | Inhibition rate(%) ([1]; 2 mM) | inhibition at 10 µM [2] [%] | inhibition at 100 µM [2] [%] | inhibition at 10 µM [3] [%] | inhibition at 100 µM [3] [%] | inhibition at 10 µM [4] [%] | inhibition at 100 µM [4] [%] | inhibition at 10 µM [5] [%] | inhibition at 100 µM [5] [%] | inhibition at 10 µM ([6]; compound concentration 10 μM) [%] | inhibition at 100 µM ([6]; compound concentration 100 μM) [%] | inhibition at 10 µM ([7]; compound concentration 10 μM) [%] | inhibition at 100 µM ([7]; compound concentration 100 μM) [%] | inhibition at 10 µM ([8]; compound concentration 10 μM) [%] | inhibition at 100 µM ([8]; compound concentration 100 μM) [%] | inhibition at 10 µM ([9]; compound concentration 10 μM) [%] | inhibition at 100 µM ([9]; compound concentration 100 μM) [%] | inhibition at 10 µM ([10]; compound concentration 10 μM) [%] | further results
Nc1cnccc1NC(=O)c1ccc(CNC(=O)/C=C/c2ccccc2)cc1 [V-26] | 24.8 | 56.8 | 58.6 | 39.9 | 82.3 | 0.9 | 23.9 | 76.6 | 95.7 | 58.5 | 87.5 | 9.5 | 79.1 | 22.7 | 81.4 | 13.8 | 75.1 | 45.2 | 72.2 | 7.7 | inhibition at 100 µM ([10]; compound concentration 100 μM): 56.3%
Cc1ccc(/C=C/C(=O)NCc2ccc(C(=O)Nc3ccncc3N)cc2)cc1 [V-28] | 30.4 | 56.8 | 66.0 | 44.4 | 85.7 | -1.7 | 52 | 84.8 | 89.4 | 64.3 | 92.9 | 17.1 | 96.4 | 25.2 | 88.8 | 23.5 | 60 | 48.1 | 75.5 | 6.5 | inhibition at 100 µM ([10]; compound concentration 100 μM): 58.8%
COc1ccc(/C=C/C(=O)NCc2ccc(C(=O)Nc3ccncc3N)cc2)cc1 [V-30] | 28.2 | 56.9 | 67.5 | 42.3 | 71.8 | 12.3 | 39.4 | 83.1 | 88.2 | 60.9 | 83.4 | 21.8 | 69.9 | 18 | 81.4 | 38.3 | 69.2 | 44.6 | 69 | 5.4 | inhibition at 100 µM ([10]; compound concentration 100 μM): 40.8%
Nc1cnccc1NC(=O)c1ccc(CNC(=O)/C=C/c2ccc([N+](=O)[O-])cc2)cc1 [V-38] | 24.2 | 55.2 | 76.1 | 39.6 | 86.9 | 5.1 | 40.8 | 76.9 | 95.1 | 54 | 88.2 | 4.2 | 63.7 | 16.6 | 73.6 | 11.7 | 63.5 | 8.7 | 52.6 | -0.2 | inhibition at 100 µM ([10]; compound concentration 100 μM): 44.4%
Nc1ncccc1NC(=O)c1ccc(CNC(=O)/C=C/c2cccnc2)cc1 [V-42, N-(2-amino-3-pyridyl)-4-[(3-pyridylacryloyl)aminomethyl]benzamide] | 11.4 | 40.2 | 82.4 | 28.2 | 55.8 | 20.8 | 50.6 | 62.4 | 93.7 | 27.9 | 67.7 | 56.3 | 88.8 | 24.2 | 89.2 | 21.2 | 58.8 | 81.4 | 89.4 | 26.3 | inhibition at 100 µM ([10]; compound concentration 100 μM): 77%
COc1cc(CCC(=O)NCc2ccc(C(=O)Nc3cccnc3N)cc2)cc(OC)c1OC [V-54, N-(2-amino-3-pyridyl)-4-[3-(3,4,5-methoxyphenyl)propionylaminomethyl]benzamide] | 2.2 | 3.1 | 42.5 | – | – | – | – | – | – | – | – | – | – | – | – | – | – | – | – | – | Hut-78 (inhibition %) ([2]; 10 μM): 0.9%; Hut-78 (inhibition %) ([2]; 100 μM): 10.6%; PANC-1 (inhibition %) ([3]; 10 μM): 15.6%; PANC-1 (inhibition %) ([3]; 100 μM): 11.7%; Jurkat E6-1 (inhibition %) ([4]; 10 μM): 2.9%; Jurkat E6-1 (inhibition %) ([4]; 100 μM): 5.8%; K562 (inhibition %) ([5]; 10 μM): 12.7%; K562 (inhibition %) ([5]; 100 μM): 13.1%; A549 (inhibition %) ([6]; compound concentration 10 μM): 7.5%; A549 (inhibition %) ([6]; compound concentration 100 μM): 12.8%; 435s(inhibition %) ([7]; compound concentration 10 μM): 14.6%; 435s(inhibition %) ([7]; compound concentration 100 μM): 14.0%; Hep3B (inhibition %) ([8]; compound concentration 10 μM): 4.2%; Hep3B (inhibition %) ([8]; compound concentration 100 μM): 4.7%; PC-3 (inhibition %) ([9]; compound concentration 10 μM): 5.6%; PC-3 (inhibition %) ([9]; compound concentration 100 μM): 5.9%; Colo320 (inhibition %) ([10]; compound concentration 10 μM): 6.8%; Colo320 (inhibition %) ([10]; compound concentration 100 μM): 2.7%
COc1cccc(/C=C/C(=O)NCc2ccc(C(=O)Nc3cccnc3N)cc2)c1 [V-91, N-(2-amino-3-pyridyl)-4-[(3-methoxycinnamoyl)aminomethyl]benzamide] | 10.1 | 47.8 | 81.8 | 26.8 | 68.3 | 2.4 | 8.5 | 23.7 | 89.9 | 37.4 | 81.6 | 17.7 | 48.9 | 25.9 | 71.2 | 7.8 | 63.6 | 7.9 | 24.2 | 9.6 | inhibition at 100 µM ([10]; compound concentration 100 μM): 27.6%
COc1cccc(/C=C/C(=O)NCc2ccc(C(=O)Nc3ccncc3N)cc2)c1 [V-92] | 24.0 | 56.1 | 65.7 | 46.2 | 78.5 | 6.3 | 33.3 | 87.5 | 95.5 | 68.7 | 91.1 | 2.2 | 54.2 | 23.7 | 77.7 | 20.2 | 80.5 | 41 | 73.8 | 6 | inhibition at 100 µM ([10]; compound concentration 100 μM): 65.5%
